Assay results taken from US5733924A, “DC 107 derivatives and treatment methods” (Kyowa Hakko Kogyo Co., Ltd., priority 1995, dated 1998).

Each molecule was assayed on P388 Leukemia (assay: Antitumor activity against P388 leukemia in mice (increased life span)). Settings: Mus musculus, P388, ip, 720 h, read-out: ILS (increased life span).
Assay type: in vivo, CDF1 mice
Procedure: Ascites were collected from the abdominal cavity of P388 ascites tumor-bearing cancer mice (DBA/2) on the 7th day after transplantation. A number of P388 cells in the ascites was counted, and a tumor cell floating liquid of 5×10^6 cells/ml was prepared using a physiological saline solution. Then, 0.2 ml of the solution containing 1×10^6 cells was transplanted into the abdominal cavity of CDF1 mice having a body weight of from 20 to 25 g.
The effect of the test compound was determined in terms of the ratio of average survival days of the group administered with the test compound to average survival days of the control group (non-medicated group) (i.e., an increased life span, ILS%).
`C/C1=C\C(O)C(=NOCc2ccccc2)/C=C/C=C\c2csc(n2)C(C)N2C(=O)CC(C(C)(O)C(=O)SCc3oc(=O)oc3C)(CC1)[S+]2[O-]` (single isomer, unassigned) [Compound 73] showed an ILS at 4 mg/kg of 43%.
Molecule `C/C1=C\C(OC(=O)Oc2ccccc2)C(=O)/C=C/C=C\c2csc(n2)C(C)N2C(=O)CC(C(C)(O)C(=O)SCc3oc(=O)oc3C)(CC1)[S+]2[O-]` (centres unmarked) [Compound 55] has an ILS at 1 mg/kg of 40%.
`C/C1=C\C(OC(=O)C2CCCCC2)C(=O)/C=C/C=C\c2csc(n2)C(C)N2C(=O)CC(C(C)(O)C(=O)SCc3oc(=O)oc3C)(CC1)[S+]2[O-]` (centres unmarked) [Compound 48] showed an ILS at 8 mg/kg of 47%.
For `C/C1=C\C(OC(=O)OCC2c3ccccc3-c3ccccc32)C(=O)/C=C/C=C\c2csc(n2)C(C)N2C(=O)CC(C(C)(O)C(=O)SCc3oc(=O)oc3C)(CC1)[S+]2[O-]` (centres unmarked) [Compound 57], the ILS at 4 mg/kg was 53%.
For `CC1=CC(OC(=O)[C@H](C)NC(=O)OCc2ccccc2)C(=O)C=CC=Cc2csc(n2)C(C)N2C(=O)CC(C(C)(O)C(=O)SCc3oc(=O)oc3C)(CC1)[S+]2[O-]` (some centres unmarked) [Compound 163], the ILS at 2 mg/kg was 46%.
Work on `COC1(OC2C=C(C)CCC3(C(C)(O)C(=O)SCc4oc(=O)oc4C)CC(=O)N(C(C)c4nc(cs4)C=CC=CC2=O)[S+]3[O-])CC[S+]([O-])CC1` (centres unmarked) [Compound 128] yielded an ILS at 4 mg/kg of 84%.
With `C/C1=C\C(O)C(=O)/C=C/C=C\c2csc(n2)C(C)N2C(=O)CC(C(C)(O)C(=O)SCOC(=O)C(C)(C)C)(CC1)[S+]2[O-]` (centres unmarked) [Compound 34] the ILS at 2 mg/kg was 48%.
Molecule `C/C1=C\C(OC(=O)OCc2ccccc2)C(=O)/C=C/C=C\c2csc(n2)C(C)N2C(=O)CC(C(C)(O)C(=O)SCc3oc(=O)oc3C)(CC1)[S+]2[O-]` (centres unmarked) [Compound 56] has an ILS at 1 mg/kg of 63%.
`C/C1=C\C(O)C(=O)/C=C/C=C\c2csc(n2)C(C)N2C(=O)CC(C(C)(O)C(=O)SCc3oc(=O)oc3C)(CC1)[S+]2[O-]` (centres unmarked) [Compound 35] was tested, and the ILS at 2 mg/kg was 65%.

Same assay, conditions: Mus musculus, P388, ip, 720 h; 1.0 mg/kg, single i.p. 24 hours after transplantation, CDF1 mice, 30 days observation; read-out: ILS (increased life span)
`COC1(OC2C=C(C)CCC3(C(C)(O)C(=O)SCc4oc(=O)oc4C)CC(=O)N(C(C)c4nc(cs4)C=CC=CC2=O)[S+]3[O-])CCS(=O)(=O)CC1` (centres unmarked) [Compound 129] showed an ILS at 1 mg/kg of 64%.
In the case of `C/C1=C\C(OC(=O)Oc2ccccc2)C(=O)/C=C/C=C\c2csc(n2)C(C)NC(=O)CC2(CC1)[S+]([O-])SC(=O)C2(C)O` (centres unmarked) [Compound 12], the ILS at 1 mg/kg is reported as 44%.
`C/C1=C\C(OC(=O)OCc2ccccc2)C(=O)/C=C/C=C\c2csc(n2)C(C)NC(=O)CC2(CC1)[S+]([O-])SC(=O)C2(C)O` (centres unmarked) [Compound 14] was tested, and the ILS at 1 mg/kg was 42%.

Same assay, conditions: Mus musculus, P388, ip, 720 h; 2.0 mg/kg, single i.p. 24 hours after transplantation, CDF1 mice, 30 days observation; read-out: ILS (increased life span)
`C/C1=C\C(OC(=O)CNC(=O)OC(C)(C)C)C(=O)/C=C/C=C\c2csc(n2)C(C)NC(=O)CC2(CC1)[S+]([O-])SC(=O)C2(C)O` (centres unmarked) [Compound 96] was tested, and the ILS at 2 mg/kg was 46%.
`CC1=CC(OC(=O)c2cccnc2)C(=O)C=CC=Cc2csc(n2)C(C)N2C(=O)CC(C(C)(O)C(=O)SCc3oc(=O)oc3C)(CC1)[S+]2[O-]` (centres unmarked) [Compound 144] was tested, and the ILS at 2 mg/kg was 49%.
In the case of `CC1=CC(OC(=O)CO)C(=O)C=CC=Cc2csc(n2)C(C)N2C(=O)CC(C(C)(O)C(=O)SCc3oc(=O)oc3C)(CC1)[S+]2[O-]` (centres unmarked) [Compound 154], the ILS at 2 mg/kg is reported as 48%.
Work on `CCOC(=O)OC1/C=C(\C)CCC2(C(C)(O)C(=O)SCOC(=O)C(C)(C)C)CC(=O)N(C(C)c3nc(cs3)/C=C\C=C\C1=O)[S+]2[O-]` (centres unmarked) [Compound 41] yielded an ILS at 2 mg/kg of 40%.
Work on `C/C1=C\C(OC(=O)c2cnc3ccccc3n2)C(=O)/C=C/C=C\c2csc(n2)C(C)NC(=O)CC2(CC1)[S+]([O-])SC(=O)C2(C)O` (centres unmarked) [Compound 9] yielded an ILS at 2 mg/kg of 44%.
For `CCOC(=O)OC1/C=C(\C)CCC2(C(C)(O)C(=O)SCc3oc(=O)oc3C)CC(=O)N(C(C)c3nc(cs3)/C=C\C=C\C1=O)[S+]2[O-]` (centres unmarked) [Compound 53], the ILS at 2 mg/kg was 43%.
`C/C1=C\C(OC(=O)OCC(C)C)C(=O)/C=C/C=C\c2csc(n2)C(C)NC(=O)CC2(CC1)[S+]([O-])SC(=O)C2(C)O` (centres unmarked) [Compound 11] gave an ILS at 2 mg/kg of 50%.

Same assay, conditions: Mus musculus, P388, ip, 720 h; 4.0 mg/kg, single i.p. 24 hours after transplantation, CDF1 mice, 30 days observation; read-out: ILS (increased life span)
`CC(=O)NCC(=O)OC1C=C(C)CCC2(C(C)(O)C(=O)SCc3oc(=O)oc3C)CC(=O)N(C(C)c3nc(cs3)C=CC=CC1=O)[S+]2[O-]` (centres unmarked) [Compound 160] showed an ILS at 4 mg/kg of 62%.
In the case of `C/C1=C\C(OC(=O)[C@H](C)NC(=O)OC(C)(C)C)C(=O)/C=C/C=C\c2csc(n2)C(C)NC(=O)CC2(CC1)[S+]([O-])SC(=O)C2(C)O` (some centres unmarked) [Compound 102], the ILS at 4 mg/kg is reported as 49%.
For `CC1=CC(OC(=O)CN(C)C(=O)OC(C)(C)C)C(=O)C=CC=Cc2csc(n2)C(C)N2C(=O)CC(C(C)(O)C(=O)SCc3oc(=O)oc3C)(CC1)[S+]2[O-]` (centres unmarked) [Compound 161], the ILS at 4 mg/kg was 65%.
`CC1=CC(OC(=O)C2CCC(=O)N2)C(=O)C=CC=Cc2csc(n2)C(C)N2C(=O)CC(C(C)(O)C(=O)SCc3oc(=O)oc3C)(CC1)[S+]2[O-]` (centres unmarked) [Compound 149] was tested, and the ILS at 4 mg/kg was 55%.
`C/C1=C\C(OC(=O)CCNC(=O)OCc2ccccc2)C(=O)/C=C/C=C\c2csc(n2)C(C)NC(=O)CC2(CC1)[S+]([O-])SC(=O)C2(C)O` (centres unmarked) [Compound 105] showed an ILS at 4 mg/kg of 53%.
Work on `CC1=CC(OC(=O)CNC(=O)[C@H](C)NC(=O)OCc2ccccc2)C(=O)C=CC=Cc2csc(n2)C(C)N2C(=O)CC(C(C)(O)C(=O)SCc3oc(=O)oc3C)(CC1)[S+]2[O-]` (some centres unmarked) [Compound 168] yielded an ILS at 4 mg/kg of 58%.
Work on `C/C1=C\C(OC(=O)CN(C)C(=O)OCc2ccccc2)C(=O)/C=C/C=C\c2csc(n2)C(C)NC(=O)CC2(CC1)[S+]([O-])SC(=O)C2(C)O` (centres unmarked) [Compound 101] yielded an ILS at 4 mg/kg of 48%.

Same assay, conditions: Mus musculus, P388, ip, 720 h; 8.0 mg/kg, single i.p. 24 hours after transplantation, CDF1 mice, 30 days observation; read-out: ILS (increased life span)
With `COC1(OC2/C=C(\C)CCC3(CC(=O)NC(C)c4nc(cs4)/C=C\C=C\C2=O)[S+]([O-])SC(=O)C3(C)O)CCCCC1` (centres unmarked) [Compound 91] the ILS at 8 mg/kg was 48%.
In the case of `C/C1=C\C(OC(=O)CNC(=O)C(CC(C)C)NC(=O)OCc2ccccc2)C(=O)/C=C/C=C\c2csc(n2)C(C)NC(=O)CC2(CC1)[S+]([O-])SC(=O)C2(C)O` (centres unmarked) [Compound 115], the ILS at 8 mg/kg is reported as 67%.
Work on `CC1=CC(OC(=O)CN(C)C(=O)OCc2ccccc2)C(=O)C=CC=Cc2csc(n2)C(C)N2C(=O)CC(C(C)(O)C(=O)SCc3oc(=O)oc3C)(CC1)[S+]2[O-]` (centres unmarked) [Compound 162] yielded an ILS at 8 mg/kg of 57%.
`C/C1=C\C(OC(=O)CNC(=O)CCNC(=O)OC(C)(C)C)C(=O)/C=C/C=C\c2csc(n2)C(C)NC(=O)CC2(CC1)[S+]([O-])SC(=O)C2(C)O` (centres unmarked) [Compound 112] showed an ILS at 8 mg/kg of 67%.
With `CC1=CC(OC(=O)[C@@H]2CCCN2C(=O)OC(C)(C)C)C(=O)C=CC=Cc2csc(n2)C(C)N2C(=O)CC(C(C)(O)C(=O)SCc3oc(=O)oc3C)(CC1)[S+]2[O-]` (some centres unmarked) [Compound 148] the ILS at 8 mg/kg was 49%.
`C/C1=C\C(OC(=O)CNC(=O)[C@H](C)NC(=O)OCc2ccccc2)C(=O)/C=C/C=C\c2csc(n2)C(C)NC(=O)CC2(CC1)[S+]([O-])SC(=O)C2(C)O` (some centres unmarked) [Compound 110] showed an ILS at 8 mg/kg of 58%.
Work on `CC1=CC(OC(=O)CNC=O)C(=O)C=CC=Cc2csc(n2)C(C)N2C(=O)CC(C(C)(O)C(=O)SCc3oc(=O)oc3C)(CC1)[S+]2[O-]` (centres unmarked) [Compound 159] yielded an ILS at 8 mg/kg of 50%.
With `CC1=CC(OC(=O)CNC(=O)C(CC(C)C)NC(=O)OCc2ccccc2)C(=O)C=CC=Cc2csc(n2)C(C)N2C(=O)CC(C(C)(O)C(=O)SCc3oc(=O)oc3C)(CC1)[S+]2[O-]` (centres unmarked) [Compound 173] the ILS at 8 mg/kg was 64%.
`COC1(OC2C=C(C)CCC3(C(C)(O)C(=O)SCc4oc(=O)oc4C)CC(=O)N(C(C)c4nc(cs4)C=CC=CC2=O)[S+]3[O-])CCN(c2ccccc2)CC1` (centres unmarked) [Compound 131] showed an ILS at 8 mg/kg of 60%.
In the case of `COC1(OC2/C=C(\C)CCC3(CC(=O)NC(C)c4nc(cs4)/C=C\C=C\C2=O)[S+]([O-])SC(=O)C3(C)O)CCSCC1` (centres unmarked) [Compound 92], the ILS at 8 mg/kg is reported as 48%.
`CC1=CC(OC(=O)CNC(=O)CNC(=O)OCc2ccccc2)C(=O)C=CC=Cc2csc(n2)C(C)N2C(=O)CC(C(C)(O)C(=O)SCc3oc(=O)oc3C)(CC1)[S+]2[O-]` (centres unmarked) [Compound 166] gave an ILS at 8 mg/kg of 64%.

Same assay, conditions: Mus musculus, P388, ip, 720 h; 16 mg/kg, single i.p. 24 hours after transplantation, CDF1 mice, 30 days observation
With `CC1=CC(OC2CCCCO2)C(=NO)C=CC=Cc2csc(n2)C(C)N2C(=O)CC(C(C)(O)C(=O)SCc3oc(=O)oc3C)(CC1)[S+]2[O-]` (centres unmarked) [Compound 125] the ILS at 16 mg/kg was 54%.
For `CC1=CC(OC(=O)CN(C)C(=O)CCNC(=O)OCc2ccccc2)C(=O)C=CC=Cc2csc(n2)C(C)N2C(=O)CC(C(C)(O)C(=O)SCc3oc(=O)oc3C)(CC1)[S+]2[O-]` (centres unmarked) [Compound 175], the ILS at 16 mg/kg was 65%.
In the case of `CC1=CC(OC(=O)CNC(=O)CCCNC(=O)OCc2ccccc2)C(=O)C=CC=Cc2csc(n2)C(C)N2C(=O)CC(C(C)(O)C(=O)SCc3oc(=O)oc3C)(CC1)[S+]2[O-]` (centres unmarked) [Compound 171], the ILS at 16 mg/kg is reported as 63%.
`CC1=CC(OC(=O)CCNC(=O)CNC(=O)OCc2ccccc2)C(=O)C=CC=Cc2csc(n2)C(C)N2C(=O)CC(C(C)(O)C(=O)SCc3oc(=O)oc3C)(CC1)[S+]2[O-]` (centres unmarked) [Compound 176] was tested, and the ILS at 16 mg/kg was 75%.
`C/C1=C\C(OC(=O)CCNC(=O)CNC(=O)OCc2ccccc2)C(=O)/C=C/C=C\c2csc(n2)C(C)NC(=O)CC2(CC1)[S+]([O-])SC(=O)C2(C)O` (centres unmarked) [Compound 118] showed an ILS at 16 mg/kg of 71%.
`C/C1=C\C(OC(=O)CNC(=O)CCCNC(=O)OCc2ccccc2)C(=O)/C=C/C=C\c2csc(n2)C(C)NC(=O)CC2(CC1)[S+]([O-])SC(=O)C2(C)O` (centres unmarked) [Compound 113] gave an ILS at 16 mg/kg of 58%.

Same assay, conditions: Mus musculus, P388, ip, 720 h; 32 mg/kg, single i.p. 24 hours after transplantation, CDF1 mice, 30 days observation
`CC1=CC(OC(=O)CCNC(=O)CCNC(=O)OCc2ccccc2)C(=O)C=CC=Cc2csc(n2)C(C)N2C(=O)CC(C(C)(O)C(=O)SCc3oc(=O)oc3C)(CC1)[S+]2[O-]` (centres unmarked) [Compound 177] was tested, and the ILS at 32 mg/kg was 52%.
